According to ChEMBL document CHEMBL1131540 (Bioorg Med Chem Lett, 1998):

Tests used:
Mu-type opioid receptor [1] = biological target: T1, Mu-type opioid receptor (Cavia porcellus, UniProt P97266); test: Compound was tested for binding affinity towards mu opioid receptor in guinea pig brain homogenates using [3H]CTOP as radioligand; format: tissue-based
Mu-type opioid receptor [2] = biological target: T1, Mu-type opioid receptor; test: Inhibitory concentration required against biological activity of mu opioid receptor from guinea pig ileum (GPI); format: tissue-based
[3] = biological target: Opioid receptors; mu & delta (Homo sapiens) (UniProt P41143+P35372); test: Selectivity ratio of binding affinity towards delta opioid receptor to that of mu opioid receptor; format: protein assay
Sequence of Opioid receptors; mu & delta (Homo sapiens) (P35372 whole entry, looked up): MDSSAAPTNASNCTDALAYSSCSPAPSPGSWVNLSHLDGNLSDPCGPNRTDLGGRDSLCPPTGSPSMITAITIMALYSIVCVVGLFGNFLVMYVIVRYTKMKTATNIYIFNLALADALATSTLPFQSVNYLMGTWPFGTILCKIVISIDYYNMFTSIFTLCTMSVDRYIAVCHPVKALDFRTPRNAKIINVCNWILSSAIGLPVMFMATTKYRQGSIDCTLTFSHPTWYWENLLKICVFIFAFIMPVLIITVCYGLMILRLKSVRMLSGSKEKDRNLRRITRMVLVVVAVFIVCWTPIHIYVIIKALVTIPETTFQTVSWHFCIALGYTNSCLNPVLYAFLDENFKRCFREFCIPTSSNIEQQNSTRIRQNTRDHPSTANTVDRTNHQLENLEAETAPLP
Sequence of Opioid receptors; mu & delta (Homo sapiens) (P41143 whole entry, looked up): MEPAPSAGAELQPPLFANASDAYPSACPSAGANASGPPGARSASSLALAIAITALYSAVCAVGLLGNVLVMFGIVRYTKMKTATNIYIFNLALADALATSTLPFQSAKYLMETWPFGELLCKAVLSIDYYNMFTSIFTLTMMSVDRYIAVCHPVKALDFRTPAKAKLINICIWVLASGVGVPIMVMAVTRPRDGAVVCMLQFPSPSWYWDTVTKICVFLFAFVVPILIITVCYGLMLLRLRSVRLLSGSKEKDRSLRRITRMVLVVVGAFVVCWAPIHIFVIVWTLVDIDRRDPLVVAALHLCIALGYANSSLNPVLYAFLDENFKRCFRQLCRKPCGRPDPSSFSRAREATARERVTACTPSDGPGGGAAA

[4] = system: Opioid receptors; mu & delta; test: Ratio of activity of mu opioid receptor from guinea pig ileum (GPI) to that of delta opioid receptor from mouse vas deferens (MVD); format: tissue-based
[5] = biological target: Delta-type opioid receptor (Mus musculus, UniProt P32300); test: Inhibitory concentration required against biological activity of Opioid receptor delta 1 from mouse vas deferens (MVD)
Sequence of Delta-type opioid receptor (P32300 whole entry): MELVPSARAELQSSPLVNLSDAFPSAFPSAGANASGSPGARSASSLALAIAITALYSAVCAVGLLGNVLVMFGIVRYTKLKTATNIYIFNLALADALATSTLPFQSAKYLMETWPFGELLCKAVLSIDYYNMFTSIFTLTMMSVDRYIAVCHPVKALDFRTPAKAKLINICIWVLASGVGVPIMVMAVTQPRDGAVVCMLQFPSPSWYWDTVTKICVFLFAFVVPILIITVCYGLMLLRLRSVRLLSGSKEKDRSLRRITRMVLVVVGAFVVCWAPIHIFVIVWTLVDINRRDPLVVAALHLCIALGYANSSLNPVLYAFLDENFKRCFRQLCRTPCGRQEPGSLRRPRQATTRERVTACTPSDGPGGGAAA

T1 sequence (P97266 whole entry): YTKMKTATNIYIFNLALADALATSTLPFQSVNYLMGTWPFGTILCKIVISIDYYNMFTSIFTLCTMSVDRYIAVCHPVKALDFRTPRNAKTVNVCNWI

| Compound | Ki (Mu-type opioid receptor [1]) | IC50 (Mu-type opioid receptor [2]) | Ratio [3] | Ratio [4] | IC50 [5] |
| --- | --- | --- | --- | --- | --- |
| C[C@@H](NC(=O)[C@@H](N)Cc1ccc(O)cc1)C(=O)NCC(=O)N[C@@H](Cc1cccc2ccccc12)C(=O)NNC(=O)[C@H](Cc1cccc2ccccc12)NC(=O)CNC(=O)[C@@H](C)NC(=O)[C@@H](N)Cc1ccc(O)cc1 | 0.79 nM | 1.7 nM | 0.12 | 0.1 | 17 nM |
| C[C@@H](NC(=O)[C@@H](N)Cc1ccc(O)cc1)C(=O)NCC(=O)N[C@@H](Cc1c(F)c(F)c(F)c(F)c1F)C(=O)NNC(=O)[C@H](Cc1c(F)c(F)c(F)c(F)c1F)NC(=O)CNC(=O)[C@@H](C)NC(=O)[C@@H](N)Cc1ccc(O)cc1 | 0.91 nM | 8.9 nM | 0.12 | 0.36 | 25 nM |
| C[C@H](c1ccccc1)[C@H](NC(=O)CNC(=O)[C@@H](C)NC(=O)[C@@H](N)Cc1ccc(O)cc1)C(=O)NNC(=O)[C@@H](NC(=O)CNC(=O)[C@@H](C)NC(=O)[C@@H](N)Cc1ccc(O)cc1)[C@H](C)c1ccccc1 (stereo in doubt) | 1.3 nM | 21 nM | 0.012 | 0.12 | 180 nM |
| CC(NC(=O)[C@@H](N)Cc1ccc(O)cc1)C(=O)NCC(=O)N[C@H](C(=O)NNC(=O)[C@@H](NC(=O)CNC(=O)C(C)NC(=O)[C@@H](N)Cc1ccc(O)cc1)[C@@H](C)c1ccccc1)[C@@H](C)c1ccccc1 (single isomer, unassigned) | 3 nM | 41 nM | 0.27 | 0.34 | 120 nM |
| C[C@@H](NC(=O)[C@@H](N)Cc1ccc(O)cc1)C(=O)NCC(=O)N[C@@H](Cc1ccc2ccccc2c1)C(=O)NNC(=O)[C@H](Cc1ccc2ccccc2c1)NC(=O)CNC(=O)[C@@H](C)NC(=O)[C@@H](N)Cc1ccc(O)cc1 | 1.7 nM | 2.2 nM | 0.23 | 0.24 | 9.3 nM |
